According to patent US11013728B2, “Cyclin-dependent kinase 8 and/or 19 inhibitor” (Kyoto Pharmaceutical Industries, Ltd., priority 2017, dated 2021):

Test system: 39 kinds of serine/threonine kinase
Assay: Off-chip Mobility Shift Assay (MSA), serine/threonine kinase panel
Assay type: biochemical
Details: test compound 1 μM; 39 kinases listed in b243 (AKT1 ... TSSK1, incl. CDK2, 3, 4, 5, 6, 7, 9)
Experimental: The action of compound (I) of the present invention on serine/threonine kinase activity was examined by Off-chip Mobility Shift Assay (MSA). The method is shown below.
The action of a test compound (1 μM) on 39 kinds of serine/threonine kinase activity was examined. A solution of 4-fold concentration of compound 32 (5 μL) prepared by using an assay buffer (20 mM HEPES, 0.01% Triton X-100, 2 mM DTT, pH 7.5), a substrate/ATP/metal solution (5 μL) and a kinase […] solution (10 μL) were mixed in a well of a polypropylene 384 well plate and the mixture was reacted at room temperature for 1 or 5 hr. The reaction was discontinued by adding 70 μL of Termination Buffer (Carna Biosciences). The substrate peptide and phosphorylated peptide in the reaction solution were separated and quantified by LabChip System (Perkin Elmer).
The kinase reaction was evaluated based on a resultant product ratio (P/(P+S)) calculated from substrate peptide peak height (S) and phosphorylated peptide peak height (P).
In the case of `CC(=O)c1ccc(C(N)=O)cc1Oc1ccc(OCCOC2CCOCC2)cc1` [Compound 32, 4-acetyl-3-{4-[2-(tetrahydropyran-4-yloxy)ethoxy]phenoxy}benzamide], the “action on serine/threonine kinase activity” value is reported as “did not affect”.

Test system: various cancer cells
Assay: not given
Details: reported in non-patent document 3; remarkable effects on leukemia cells; cited from earlier work
For Cortistatin A, the “proliferation of various cancer cells” value is given as “suppresses proliferation”.

Test system: human acute myeloid leukemia MV4; 11
Assay: MV4;11 cell proliferation inhibitory activity (CellTiter 96 Aqueous One)
Assay type: cell-based
Details: 72 h, MV4;11 cells, cultured 3 days, read-out: cell proliferation inhibitory rate
Experimental: The human acute myeloid leukemia MV4; 11 cell proliferation inhibitory activity of compound (I) of the present invention was evaluated by the following method.
A cell suspension (100 μL, 10,000 cells/well) of human acute myeloid leukemia MV4; 11 (purchased from American Type Culture Collection) was seeded on a 96 well plate and cultured in a 5% carbon dioxide gas incubator at 37° C. for one day. After the above-mentioned culture, each test compound (compound (I)) was added to a concentration of 1 μM and the mixture was further cultured for 3 days. After the above-mentioned culture, 40 μL of CellTiter 96 (registered trade mark) Aqueous One Solution Cell Proliferation Assay (Promega KK) was added to the 96 well-plate, the mixture was reacted for 3 hr, and the absorbance (490 nm) was measured by a plate reader.
Using the absorbance of the test compound non-addition well as a control and the absorbance of the cell non-seeded well as a blank, the cell proliferation inhibitory rate was determined at 1 μM of each test compound.
In the case of `C=C(F)c1ccc(C(N)=O)cc1Oc1ccc(OCCOC2CCOCC2)cc1` [Compound 84, 4-(1-fluorovinyl)-3-{4-[2-(tetrahydropyran-4-yloxy)ethoxy]phenoxy}benzamide], the inhibition at 1 µM is reported as ≥ 50%.
In the case of `CC(=O)c1ccc(C(N)=O)cc1Oc1ccc(OCCOCCOC(C)C)cc1` [Compound 33, 4-acetyl-3-{4-[2-(2-isopropoxyethoxy)ethoxy]phenoxy}benzamide], the inhibition at 1 µM is reported as ≥ 50%.
With `CC(=O)c1ccc(C(N)=O)cc1Oc1ccc(OCCOC2CCOCC2)cc1` [Compound 32, 4-acetyl-3-{4-[2-(tetrahydropyran-4-yloxy)ethoxy]phenoxy}benzamide] the inhibition at 1 µM was ≥ 50%.
For `NC(=O)c1ccc([N+](=O)[O-])c(Nc2ccc(OCCOC3CCOCC3)cc2)c1` [Compound 50, 4-nitro-3-{4-[2-(tetrahydropyran-4-yloxy)ethoxy]phenylamino}benzamide], the inhibition at 1 µM was ≥ 50%.
In the case of `CNC(=O)c1ccc([N+](=O)[O-])c(Nc2ccc(N3CC(OCCO)C3)cc2)c1` [Compound 48, 3-{4-[3-(2-hydroxyethoxy)azetidin-1-yl]phenylamino}-N-methyl-4-nitrobenzamide], the inhibition at 1 µM is reported as ≥ 50%.
For `NC(=O)c1ccc([N+](=O)[O-])c(Nc2ccc(N3CC(OCCO)C3)cc2)c1` [Compound 5, 3-{4-[3-(2-hydroxyethoxy)azetidin-1-yl]phenylamino}-4-nitrobenzamide], the inhibition at 1 µM was ≥ 50%.
In the case of `CC(=O)c1ccc(C(N)=O)cc1Oc1ccc(OCCOC2CCOC2)cc1` (stereo not shown) [Compound 67, 4-acetyl-3-{4-[2-(tetrahydrofuran-3-yloxy)ethoxy]phenoxy}benzamide], the inhibition at 1 µM is reported as ≥ 50%.
For `NC(=O)c1ccc(C(F)(F)F)c(Oc2ccc(OCCOC3CCOCC3)cc2)c1` [Compound 64, 3-{4-[2-(tetrahydropyran-4-yloxy)ethoxy]phenoxy}-4-trifluoromethylbenzamide], the inhibition at 1 µM was ≥ 50%.
In the case of `CC(=O)c1ccc(C(N)=O)cc1Oc1ccc(N2CC(OCCO)C2)cc1` [Compound 28, 4-acetyl-3-{4-[3-(2-hydroxyethoxy)azetidin-1-yl]phenoxy}benzamide], the inhibition at 1 µM is reported as ≥ 50%.

Target: T1, CDK19 (Homo sapiens, UniProt Q9BWU1)
T1 construct: purchased Carna Bioscience
T1 sequence (Q9BWU1 whole entry): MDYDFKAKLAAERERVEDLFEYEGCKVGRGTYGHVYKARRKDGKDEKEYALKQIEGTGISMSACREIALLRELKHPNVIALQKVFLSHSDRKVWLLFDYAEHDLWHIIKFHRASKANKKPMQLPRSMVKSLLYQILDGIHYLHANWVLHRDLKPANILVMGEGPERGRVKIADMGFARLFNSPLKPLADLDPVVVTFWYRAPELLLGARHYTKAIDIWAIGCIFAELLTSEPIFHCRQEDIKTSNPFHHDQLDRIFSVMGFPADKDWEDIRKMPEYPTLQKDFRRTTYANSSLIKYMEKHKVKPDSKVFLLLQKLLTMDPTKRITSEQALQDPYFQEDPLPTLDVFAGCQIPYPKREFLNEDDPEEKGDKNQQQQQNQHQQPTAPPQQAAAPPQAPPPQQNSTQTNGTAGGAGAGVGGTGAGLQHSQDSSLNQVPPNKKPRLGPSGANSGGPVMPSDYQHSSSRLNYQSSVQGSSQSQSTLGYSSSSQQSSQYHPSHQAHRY
T1 sequence (P24863 whole entry partner): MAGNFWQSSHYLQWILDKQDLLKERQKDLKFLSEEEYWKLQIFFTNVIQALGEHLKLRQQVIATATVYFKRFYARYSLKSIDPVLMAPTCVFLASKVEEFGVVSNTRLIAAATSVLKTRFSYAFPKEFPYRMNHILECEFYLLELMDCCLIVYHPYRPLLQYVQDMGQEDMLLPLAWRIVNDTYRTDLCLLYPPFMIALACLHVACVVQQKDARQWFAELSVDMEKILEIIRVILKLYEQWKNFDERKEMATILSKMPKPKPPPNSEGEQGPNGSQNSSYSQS
Assay: CDK19 inhibitory activity, ELISA kinase assay
Assay type: biochemical
Details: at 1 μM of test compound; read-out: CDK19 inhibitory rate
Experimental: The test compound (compound (I)) dissolved in DMSO was diluted with an assay buffer (QSS Assist STK ELISA Kit (CDK8/CycC), Carna Bioscience) to give a primary dilution solution with a DMSO concentration of 40%. The above-mentioned primary dilution solution (10 μL) was dispensed in a streptavidin-coated 96 well plate, and an assay buffer mixture (10 μL) containing 500 nM substrate (Carna Bioscience), 10 mM MgCl2 (Carna Bioscience) and 100 μM ATP (Carna Bioscience) was added. After the above-mentioned addition, 10 μL of a kinase solution was added (1 ng/μL CDK8/CycC (Carna Bioscience) diluted with assay buffer is used for measurement of CDK8 inhibitory activity and for 5 ng/μL […] (Carna Bioscience) diluted with assay buffer is used for measurement of CDK19 inhibitory activity). After the above-mentioned addition, the mixture was stood in an incubator at 24-26° C. for 30 min. […] The reaction was quenched by adding a color developing reaction termination drug (Nacalai Tesque) (100 μL) to each well, and the absorbance (450 nm) was measured by a plate reader.
Using the absorbance of the test compound non-addition well as a control and the absorbance of the enzyme non-addition well as a blank, the CDK8 and CDK19 inhibitory rate was determined at 1 μM of each test compound.
For `CC(=O)c1ccc(C(N)=O)cc1Oc1ccc(OCCOC2CCOCC2)cc1` [Compound 32, 4-acetyl-3-{4-[2-(tetrahydropyran-4-yloxy)ethoxy]phenoxy}benzamide], the inhibition at 1 µM was ≥ 90%.
With `C[C@@H](O)c1ccc(C(N)=O)cc1Oc1ccc(OCCOC2CCOCC2)cc1` [Compound 43] the inhibition at 1 µM was ≥ 90%.
